US20090099135A1, “Pest control compositions and methods” (priority 2007, published 2009)
Blank lines part the entries; values can stand above or below the molecule they belong to.

Assays:
tyramine receptor (TyrR) [1] = target: T1, tyramine receptor (TyrR) (Drosophila melanogaster, UniProt P22270); test: Inhibition binding of 3H-tyramine to membranes of Schneider cells expressing tyramine receptor; details: compared with tyramine
T1 construct: oligonucleotides that are used to amplify the open reading frame of the Drosophila tyramine receptor (TyrR); expressed in transfected cells
T1 sequence (P22270 27-601): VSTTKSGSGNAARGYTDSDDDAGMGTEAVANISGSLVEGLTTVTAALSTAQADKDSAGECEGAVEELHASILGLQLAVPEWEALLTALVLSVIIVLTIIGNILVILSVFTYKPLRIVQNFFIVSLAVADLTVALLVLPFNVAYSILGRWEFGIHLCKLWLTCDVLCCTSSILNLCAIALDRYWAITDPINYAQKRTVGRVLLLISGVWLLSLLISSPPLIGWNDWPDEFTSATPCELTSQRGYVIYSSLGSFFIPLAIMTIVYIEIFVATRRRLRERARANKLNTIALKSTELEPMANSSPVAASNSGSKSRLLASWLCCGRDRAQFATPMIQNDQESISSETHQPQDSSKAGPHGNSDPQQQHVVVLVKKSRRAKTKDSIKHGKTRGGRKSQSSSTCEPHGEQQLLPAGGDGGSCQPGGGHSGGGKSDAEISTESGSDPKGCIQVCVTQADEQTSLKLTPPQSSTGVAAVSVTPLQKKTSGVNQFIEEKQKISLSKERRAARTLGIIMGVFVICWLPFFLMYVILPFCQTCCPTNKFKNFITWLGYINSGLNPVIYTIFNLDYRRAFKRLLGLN
Method: To study the kinetics of the tyramine receptor in stably transfected cells with pAcB-TyrR, crude membrane fractions are prepared from the transfected cells and used to calculate the equilibrium dissociation constant (Kd), Maximum Binding Capacity (Bmax), equilibrium inhibitor dissociation constant (Ki) and EC50 (effective concentration at which binding is inhibited by 50%). A preliminary study to determine the optimum concentration of membrane protein for receptor binding activity is performed. In this study, different concentrations of protein (about 10-50 μg/reaction) are incubated in about 1 ml binding buffer (50 mM Tris, pH 7.4, 5 mM MgCl2 and 2 mM ascorbic acid). The reaction is initiated by the addition of about 5 nM ^3H-tyramine with and without about […] unlabeled tyramine. After about 1 hr incubation at room temperature, reactions are terminated by filtration through GF/C filters (VWR), which have been previously soaked in about 0.3% polyethyleneimine (PEI). The filters are washed one time with about 4 ml ice cold Tris buffer and air dried before the retained radioactivity is measured using LSC. Binding data is analyzed by curve fitting (GraphPad software, Prism). […] Therefore, about 10 μg protein/reaction is used.
(§1) To determine the affinities of several ligands for TyrR, increasing concentration of several compounds are tested for their ability to inhibit binding of about 2 nM ^3H-tyramine. For both saturation and inhibition assays total and non-specific binding is determined in the absence and presence of about 10 μM unlabeled-tyramine, respectively. Receptor binding reactions are incubated for about 1 hour at room temperature (RT) in restricted light. Reactions are terminated by filtration through GF/C filters (VWR), which have been previously soaked in about 0.3% polyethyleneimine (PEI). The filters are washed one time with about 4 ml ice cold Tris buffer and air dried before retained radioactivity is measured using LSC. Binding data is analyzed by curve fitting (GraphPad software, Prism).

Culex quinquefasciatus = test: Repellency effect against Culex quinquefasciatus (biting counts on volunteers' legs); format: in vivo
Method: The repellency of exemplary compositions of the present invention are compared to the repellency of their individual ingredients, and to a non-treated control. Southern house mosquitoes, Culex quinquefasciatus, are obtained as test organisms. Multiple human evaluators test each treatment in a replicated experiment. Experimentation is conducted in a laboratory using multiple-chambered, plexiglass modules, each chamber stocked with about 2-10 day-old colony-reared female mosquitoes. The modules are equipped with sliding doors to expose the mosquitoes to the legs of three volunteers. Treatments are applied at about 28.6 μl to 12 cm^2 rectangular sections of skin located directly beneath the chamber openings. Each volunteer conducts 2-minute biting counts for each treatment at five time intervals: 0, 1, 2, 4 & 6 hours post-treatment. New mosquitoes are stocked into the chamber for each time interval. Ambient temperature and humidity data is recorded with a HOBO datalogger. Percent repellency is determined according to the following formula: Control−Treatment/Control X 100.

Whitefly (on zucchini) = test: Interim field plot ratings, South Georgia: whitefly on zucchini; format: in vivo; details: rate not given; 1 wk after treatment
Thrips (on cotton) = test: Interim field plot ratings, South Georgia: thrips on cotton; format: in vivo; details: rate not given; 1 wk after treatment
Aedes aegypti = test: Pesticidal effect (KD) against Aedes aegypti; format: in vivo
Method: With reference to FIG. 4A, the pesticidal effect against Aedes aegypti was determined for Blend 23 (labeled “HL1”) and the composition including CL and Blend 23.
Similarly, with reference to FIG. 4B, the pesticidal effect against Aedes aegypti was determined for Blend 23 (labeled “HL1”) and the composition including CL and Blend 23.
Similarly, with reference to FIG. 4C, the pesticidal effect against Aedes aegypti was determined for Blend 23 (labeled “HL1”) and the composition including Imidacloprid and Blend 23.

[2] = Interim field plot ratings, South Georgia: flower damage rating; format: in vivo; details: rate not given; 1 wk after treatment
aphids (on cotton) = test: Interim field plot ratings, South Georgia: aphids on cotton; format: in vivo; details: rate not given; 1 wk after treatment
Periplaneta americana = test: Pesticidal effect (mortality) against Periplaneta americana; format: in vivo; details: Blend 23 5%
Method: With reference to FIG. 6A, the pesticidal effect against Periplaneta americana was determined for Blend 23 (labeled “HL1”) and the composition including CL and Blend 23.
With reference to FIG. 6B, the pesticidal effect against Periplaneta americana was determined for Blend 23 (labeled “HL1”) and the composition including Imidacloprid and Blend 23.

Drosophila sp. = test: Pesticidal effect (KD) against Drosophila sp.; format: in vivo; details: FIG. 4D; Imidacloprid 50 ppm; Blend 23 2.5%; combination of both
Method: Similarly, with reference to FIG. 4D, the pesticidal effect against Drosophila sp. was determined for Blend 23 (labeled “HL1”) and the composition including Imidacloprid and Blend 23.

tyramine receptor = target: T2, tyramine receptor (Drosophila melanogaster, UniProt P22270); test: Whole cell 3H-tyramine binding in Schneider cells transfected with tyramine receptor
T2 construct: oligonucleotides that are used to amplify the open reading frame of the Drosophila tyramine receptor (TyrR); expressed in transfected cells
T2 sequence (P22270 27-601): T1 sequence (P22270 27-601)
Method: Cells transfected with the tyramine receptor (about 1×10^6 cells/ml) are cultured in each well of a multi-well plate. About 24 hours after plating the cells, the medium is withdrawn and replaced with about 1 ml insect saline (about 23 C). Different concentrations of ^3H-tyramine (about 0.1-10 nM) are added with and without about 10 μM unlabeled tyramine and incubated at room temperature (RT). After about a 20 minute incubation, the reaction is stopped by rapid aspiration of the saline and at least one wash with about 2 ml insect saline (about 23 C). Cells are solubilized in about 300 μl 0.3M NaOH for about 20 min at RT. Solubilized cells are transferred into about 4 ml Liquid Scintillation Solution (LSS) and vigorously vortexed for about 30 sec before counting the radioactivity using a Liquid Scintillation P-counter (Beckman, Model LS1801) (LSC).
Receptor specific binding data is expressed as fmol specific binding per 1×10^6 cells and measured as a function of ^3H-tyramine concentration. Specific binding values are calculated as the difference between values in the absence of and values in the presence of about 10 μM unlabeled tyramine. The maximum specific binding occurs at about 5 nM ^3H-tyramine.

tyramine receptor (TyrR) [3] = target: T1, tyramine receptor (TyrR); test: Saturation binding of 3H-tyramine to membranes of Schneider cells expressing tyramine receptor; details: membranes of cells stably transfected with pAcB-TyrR
Method: To study the kinetics of the tyramine receptor in stably transfected cells with pAcB-TyrR, crude membrane fractions are prepared from the transfected cells and used to calculate the equilibrium dissociation constant (Kd), Maximum Binding Capacity (Bmax), equilibrium inhibitor dissociation constant (Ki) and EC50 (effective concentration at which binding is inhibited by 50%). A preliminary study to determine the optimum concentration of membrane protein for receptor binding activity is performed. In this study, different concentrations of protein (about 10-50 μg/reaction) are incubated in about 1 ml binding buffer (50 mM Tris, pH 7.4, 5 mM MgCl2 and 2 mM ascorbic acid). The reaction is initiated by the addition of about 5 nM ^3H-tyramine with and without about […] unlabeled tyramine. After about 1 hr incubation at room temperature, reactions are terminated by filtration through GF/C filters (VWR), which have been previously soaked in about 0.3% polyethyleneimine (PEI). The filters are washed one time with about 4 ml ice cold Tris buffer and air dried before the retained radioactivity is measured using LSC. […]
To determine Bmax and Kd values for tyramine receptor (TyrR) in membranes expressing TyrR, saturation binding experiments are performed. […] Binding data is analyzed by curve fitting (GraphPad software, Prism) and the Kd for tyramine binding to its receptor is determined. […]

[4] = system: Blattella germanica (German cockroaches); test: Pesticidal effect against German cockroaches (KD and 100% kill time); format: in vivo
Method: With reference to Table 15, the pesticidal effect against Blattella germanica (German cockroaches) was determined for DM, Blend 12, and the composition including DM and Blend 12.
A synergistic effect was shown for the combination treatment that results in an average KD of the insects in 5 sec, and 100% killing of the insects in 17 seconds.

TyrR = target: T3, TyrR (Drosophila melanogaster, UniProt P22270); test: TyrR competition binding assay (% binding inhibition)
T3 sequence (P22270 27-601): T1 sequence (P22270 27-601)
Method: When the chemical(s) and compound(s) are combined to provide the compositions of the present invention, there is a synergistic effect.
as §1

- efficiency at displacing 3H-tyramine binding (tyramine receptor (TyrR) [1]): less efficient than tyramine
Structure (SMILES): NCCc1ccc(O)c(O)c1 [dopamine, Dopamine]

- efficiency at displacing 3H-tyramine binding (tyramine receptor (TyrR) [1]): less efficient than tyramine
Structure (SMILES): NCC(O)c1ccc(O)cc1 (stereo not shown) [Octopamine]

Structure (SMILES): CCN(CC)C(=O)c1cccc(C)c1 [DEET, N,N-DIETHYL-3-METHYLBENZAMIDE]
- Percent repellency, 0 (Culex quinquefasciatus; 0 hours post-treatment): 40%
- Percent repellency, 1 Hour (Culex quinquefasciatus; 1 hour post-treatment): 20%
- Percent repellency, 2 Hours (Culex quinquefasciatus; 2 hours post-treatment): 10%
- Percent repellency, 4 Hours (Culex quinquefasciatus; 4 hours post-treatment): 5%
- Percent repellency, 6 Hours (Culex quinquefasciatus; 6 hours post-treatment): 0%
- Activity Ratio (repellency at 1 hour) (Culex quinquefasciatus; effect of composition (5% DEET and 95% Blend 9) divided by effect of comparison composition): (1.00)/(0.20) = 5.0
- Synergy Coefficient (repellency at 1 hour) (Culex quinquefasciatus; of composition (5% DEET and 95% Blend 9) relative to comparison composition): 100

Structure (SMILES): O=[N+]([O-])NC1=NCCN1Cc1ccc(Cl)nc1 [Imidacloprid, 1-[(6-Chloro-3-pyridinyl)methyl]-N-nitro-2-imidazolidinimine]
- Whitefly (on zucchini) Adult, insect count (Whitefly (on zucchini)): 16
- Whitefly (on zucchini) Nymph, insect count (Whitefly (on zucchini)): 5
- Thrips (on cotton), insect count (Thrips (on cotton)): 9
- KD of target insect at 30 seconds post-treatment (Aedes aegypti; FIG. 4C, Imidacloprid 250 ppm, Blend 23 2.5%, combination of both): 20%
- KD of target insect (Aedes aegypti; FIG. 5, Imidacloprid 500 ppm, B5028 5%, combination of both): no KD
- Flower damage (1-5 rating scale; 1 = no damage) [2]: 2.0
- aphids (on cotton) Adults, insect count (aphids (on cotton)): 0.3
- aphids (on cotton) Nymph, insect count (aphids (on cotton)): 1.6
- mortality 30 minutes post-treatment (Periplaneta americana; FIG. 6B, Imidacloprid alone 0.05%, 0.033%, 0.01%, Imidacloprid 0.033% combined with 5% Blend 23): no mortality
- KD of target insect at 30 seconds post-treatment (Drosophila sp.): 0%

Structure (SMILES): NCCc1ccc(O)cc1 [Blend 3H-tyramine, ^3H-tyramine]
- concentration at which maximum specific binding occurs (tyramine receptor; whole transfected cells): about 5 nM
- Bmax (tyramine receptor (TyrR) [3]): about 0.679 μmol/mg protein
- Kd (tyramine receptor (TyrR) [3]): ~1.26 nM

Structure (SMILES): CN/C(=N\[N+](=O)[O-])NCc1cnc(Cl)s1 [CL, clothianidin]
- KD of target insect (Aedes aegypti; FIG. 4A, CL alone 500 ppm, CL 167 ppm combined with 2.5% Blend 23): no KD
- KD of target insect (Aedes aegypti; FIG. 4B, CL alone 250 ppm, CL 167 ppm combined with 2.5% Blend 23): no KD
- mortality 30 minutes post-treatment (Periplaneta americana; FIG. 6A, CL 0.05%, combination of both): no mortality

Structure (SMILES): CC1(C)[C@H](C(=O)O[C@H](C#N)c2cccc(Oc3ccccc3)c2)[C@@H]1C=C(Br)Br [DM, deltamethrin]
- Whitefly (on zucchini) Adult, insect count (Whitefly (on zucchini)): 18
- Whitefly (on zucchini) Nymph, insect count (Whitefly (on zucchini)): 142
- Thrips (on cotton), insect count (Thrips (on cotton)): 13
- 100% Kill (time) ([4]; Example 4, DM 0.037 mg/cm^2, Blend 12 1.9 mg/cm^2): 15 min
- 100% Kill (time) ([4]; Table 16, DM 0.037 mg/cm^2): 12 min
- Flower damage (1-5 rating scale; 1 = no damage) [2]: 2.2
- aphids (on cotton) Adults, insect count (aphids (on cotton)): 15
- aphids (on cotton) Nymph, insect count (aphids (on cotton)): 26
- % TyrR Binding Inhibition (TyrR): 10%

Structure (SMILES): NCCc1ccc(O)cc1 [Tyramine (TA), Tyramine]
- response of untransfected cells (tyramine receptor; concentrations as high as about 100 μM): do not respond
- % TyrR Binding Inhibition (TyrR): 75%

- efficiency at displacing 3H-tyramine binding (tyramine receptor (TyrR) [1]): less efficient than tyramine
Structure (SMILES): NCCc1c[nH]c2ccc(O)cc12 [serotonin, Serotonin]
